Data published in US9630977B2, “Cephalosporin derivatives and pharmaceutical compositions thereof” (Legochem Biosciences, Inc., priority 2011, dated 2017).
Converted amounts (≈) assume the structure as drawn.

Legend:
Type in all cases: cell-based
[1] = system: P. aeruginosa (16 clinical isolates); experiment: Antibacterial activity on representative drug-resistance bacteria: number of clinical isolates per MIC value; settings: P. aeruginosa (N = 16)
Procedure: (§1) The in vitro antibacterial activity was evaluated by measuring MIC90 (ug/mL) of each of the compounds of Examples 1 to 68, which is defined as the lowest concentration of an antibiotic that will inhibit the visible growth of 90% of microorganisms after incubation as compared with a control group to which the antibiotic is not treated. MIC90 values were measured by the broth microdilution method developed by the Clinical and Laboratory Standards Institute (CLSI) (see CLSI M7-A5, Methods for Dilution Antimicrobial Susceptibility Test for Bacteria that Grow Aerobically-Fifth Edition (2000): CLSI, Villanova, Pa.).
(§2) Test compounds each (the cephalosporin derivative compounds prepared in Examples 1 to 68) were dissolved in DMSO at the concentration of 10,240 ug/mL, were diluted by two fold with DMSO, and then were diluted by twenty fold with sterilized distilled water. The final concentration in the antibacterial activity test was in the range of […] to 128 ug/mL, and the final concentration of DMSO used as an adjuvant was 2.5% (V/V).

[2] = system: A. baumannii (6 clinical isolates); experiment: as above; settings: A. baumanni (N = 6)
Procedure: as §1, §2

[3] = system: K. pneumoniae (38 clinical isolates); experiment: as above; settings: K. pneumomiae (N = 38)
Procedure: as §1, §2

P. aeruginosa 6065Y = experiment: In vitro antibacterial activity test (broth microdilution)
How it was run: (§3)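 MIC90 (ug/mL) reported. CLSI microdilution in broth, clinical strains, 0.0626–128 ug/mL final compound, 2.5% v/v DMSO co-solvent.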

M. catarrhalis 2524 = experiment: as above; settings: M. catarrhalis 2524
How it was run: as §3

K. pneumoniae 2011E = experiment: as above; settings: K. pneumoniae 2011E
How it was run: as §3

E. coli AG100 = experiment: as above; settings: E. coli AG100
How it was run: as §3

A. baumannii 49 = experiment: as above; settings: A. baumannii 49
How it was run: as §3

A. baumannii 46 = experiment: as above; settings: A. baumannii 46
How it was run: as §3

[4] = system: A. calcoaceticus ATCC15473; experiment: as above; settings: A. calcoaceticus ATCC15473
How it was run: as §3

P. aeruginosa 1912E = experiment: as above
How it was run: as §3

E. cloacae β19 = experiment: as above
How it was run: as §3

K. pneumoniae β13 = experiment: as above; settings: K. pneumoniae β13
How it was run: as §3

K. pneumoniae β10 = experiment: as above; settings: K. pneumoniae β10
How it was run: as §3

A. baumannii 52 = experiment: as above; settings: A. baumannii 52
How it was run: as §3

E. coli β4 = experiment: as above
How it was run: as §3

P. aeruginosa 43 = experiment: as above; settings: P. aeruginosa 43
How it was run: as §3

K. pneumoniae β9 = experiment: as above; settings: K. pneumoniae β9
How it was run: as §3

K. pneumoniae β11 = experiment: as above; settings: K. pneumoniae β11
How it was run: as §3

P. aeruginosa 40 = experiment: as above; settings: P. aeruginosa 40
How it was run: as §3

K. pneumoniae β14 = experiment: as above
How it was run: as §3

P. aeruginosa 37 = experiment: as above; settings: P. aeruginosa 37
How it was run: as §3

19 clinical isolates = experiment: In vitro antibacterial activity test, panel of 19 clinical isolates as a whole; settings: effect of a siderophore group, Table 1
Procedure: To evaluate antibacterial activity of each of the compounds of Examples 1 to 68, in vitro antibacterial activity test was performed.
as §1
In vitro antibacterial activity was measured with respect to the following 19 clinical isolates: M. catarrhalis; P. aeruginosa (5 strains); K. pneumoniae (6 strains); A. baumannii (3 strains); E. coli (2 strains); A. calcoaceticus; and E. cloacae.
as §2

For `CC(C)(O/N=C(\C(=O)N[C@@H]1C(=O)N2C(C(=O)[O-])=C(/C=C/C[n+]3cnc(N)c(NCCNC(=O)c4cc(=O)c(O)cn4O)c3)CSC12)c1csc(N)n1)C(=O)O` (stereo partly shown) [Compound 11], the “number of clinical isolates that showed the respective MIC value” (shortened to “number”) ([1]; MIC 0.125 ug/mL) was 1, the “number” value ([1]; MIC 0.5 ug/mL) was 3 and the “number” value ([1]; MIC 1 ug/mL) was 2. The “number” value ([1]; MIC 2 ug/mL) was 2, the “number” value ([1]; MIC 4 ug/mL) was 3 and the “number” value ([1]; MIC 8 ug/mL) was 2. The “number” value ([1]; MIC 16 ug/mL) was 1, the “number” value ([1]; MIC >16 ug/mL) was 2 and the “number” value ([2]; MIC 2 ug/mL) was 1. For the same compound, the “number” value ([2]; MIC >16 ug/mL) was 5, the “number” value ([3]; MIC 0.5 ug/mL) was 1 and the “number” value ([3]; MIC 2 ug/mL) was 1. The “number” value ([3]; MIC 8 ug/mL) was 1, the “number” value ([3]; MIC >16 ug/mL) was 35 and the MIC90 (P. aeruginosa 6065Y) was 4 µg/mL (≈ 5 µM). For the same compound, the MIC90 (M. catarrhalis 2524) was 0.25 µg/mL (≈ 0.313 µM), the MIC90 (K. pneumoniae 2011E) was 0.5 µg/mL (≈ 0.625 µM) and the MIC90 (E. coli AG100) was 0.125 µg/mL (≈ 0.156 µM). It also gave an MIC90 (A. baumannii 49) of over 128 µg/mL, an MIC90 (A. baumannii 46) of 4 µg/mL (≈ 5 µM) and an MIC90 [4] of 1 µg/mL (≈ 1.25 µM). For the same compound, the MIC90 (P. aeruginosa 1912E) was 1 µg/mL (≈ 1.25 µM), the MIC90 (E. cloacae β19) was 64 µg/mL (≈ 80 µM) and the MIC90 (K. pneumoniae β13) was under 0.0625 µg/mL. It also gave an MIC90 (K. pneumoniae β10) of under 0.0625 µg/mL, an MIC90 (A. baumannii 52) of over 128 µg/mL and an MIC90 (E. coli β4) of 0.125 µg/mL (≈ 0.156 µM). For the same compound, the MIC90 (P. aeruginosa 43) was 1 µg/mL (≈ 1.25 µM), the MIC90 (K. pneumoniae β9) was under 0.0625 µg/mL and the MIC90 (K. pneumoniae β11) was over 128 µg/mL. For the same compound, the MIC90 (P. aeruginosa 40) was 0.5 µg/mL (≈ 0.625 µM), the MIC90 (K. pneumoniae β14) was 8 µg/mL (≈ 10 µM) and the MIC90 (P. aeruginosa 37) was 1 µg/mL (≈ 1.25 µM). For the same compound, the “antibacterial activity (in words)” value (19 clinical isolates) was “significantly improved”.
